Measured values reported in patent EP1247803A2, “Indolinone compounds suitable for modulation of protein kinases” (Sugen, Inc., priority 1996, dated 1998).

Key:
MET = MET biochemical kinase assay; set-up: species or system human; concentration or dose not given beside the values
Summary of the method: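 Colorimetric signal from an HRP-linked anti-phosphotyrosine antibody with TMB measures phosphate incorporated into immobilised MET. The receptor is pulled from lysates by a polyclonal antibody against its cytoplasmic domain, then reacts in ATP- and metal-containing buffer with test compound.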

FLK-1 receptor = biological target: T1, FLK-1 receptor (Mus musculus, UniProt P35918); assay: FLK-1 ELISA (kinase activity of the FLK-1 receptor in FLK-1/NIH3T3 cells, VEGF stimulated); format: cell-based
T1 construct: expressed in transfected cells; host or cells: NIH3T3 C7#3
Summary of the method: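 FLK-1-expressing NIH3T3 C7#3 cells, starved overnight in 0.1% FBS medium, were treated with compounds at a 1:200 final dilution (0.5% DMSO) for 2 h at 37 °C, with VEGF stimulation. FLK-1 kinase activity was read by ELISA on anti-rabbit IgG plates using affinity-purified anti-FLK-1 antiserum.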

T1 sequence (P35918 20-1345): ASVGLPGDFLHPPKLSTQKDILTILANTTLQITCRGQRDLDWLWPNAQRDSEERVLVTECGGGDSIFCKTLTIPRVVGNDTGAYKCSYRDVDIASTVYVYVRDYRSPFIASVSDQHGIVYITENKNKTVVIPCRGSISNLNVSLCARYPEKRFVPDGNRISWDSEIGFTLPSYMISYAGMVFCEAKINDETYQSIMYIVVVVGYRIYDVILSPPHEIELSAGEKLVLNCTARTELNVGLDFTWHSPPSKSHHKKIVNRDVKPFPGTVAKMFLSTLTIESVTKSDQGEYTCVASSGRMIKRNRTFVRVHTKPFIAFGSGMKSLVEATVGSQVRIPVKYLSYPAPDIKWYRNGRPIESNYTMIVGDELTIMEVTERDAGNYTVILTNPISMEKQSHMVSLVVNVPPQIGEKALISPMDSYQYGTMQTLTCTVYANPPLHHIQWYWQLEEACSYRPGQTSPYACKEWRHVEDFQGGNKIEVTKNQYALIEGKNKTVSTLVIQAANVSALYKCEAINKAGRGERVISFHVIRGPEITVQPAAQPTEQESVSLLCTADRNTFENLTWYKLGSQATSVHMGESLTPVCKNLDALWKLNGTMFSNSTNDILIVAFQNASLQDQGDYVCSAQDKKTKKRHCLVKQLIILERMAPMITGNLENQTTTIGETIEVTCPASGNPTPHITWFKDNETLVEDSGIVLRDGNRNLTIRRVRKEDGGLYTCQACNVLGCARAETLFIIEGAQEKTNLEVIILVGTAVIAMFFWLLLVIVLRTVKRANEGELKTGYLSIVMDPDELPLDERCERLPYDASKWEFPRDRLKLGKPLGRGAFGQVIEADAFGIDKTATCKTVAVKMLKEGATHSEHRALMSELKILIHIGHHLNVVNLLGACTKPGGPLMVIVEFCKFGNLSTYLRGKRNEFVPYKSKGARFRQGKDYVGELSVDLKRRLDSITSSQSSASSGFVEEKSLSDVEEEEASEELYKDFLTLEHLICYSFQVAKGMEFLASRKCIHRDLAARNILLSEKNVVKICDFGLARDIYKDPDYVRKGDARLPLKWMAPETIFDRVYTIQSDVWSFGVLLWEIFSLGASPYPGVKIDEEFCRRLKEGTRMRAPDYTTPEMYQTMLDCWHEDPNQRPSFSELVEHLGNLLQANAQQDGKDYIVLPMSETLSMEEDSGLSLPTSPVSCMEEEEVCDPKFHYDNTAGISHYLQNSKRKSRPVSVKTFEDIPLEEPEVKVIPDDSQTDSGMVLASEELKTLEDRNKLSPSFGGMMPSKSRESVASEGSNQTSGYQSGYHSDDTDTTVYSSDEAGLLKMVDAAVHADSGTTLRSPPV

Row | Structure (SMILES) | Met Kinase % Inhibition (MET) [%] | Fik Kinase %Inhibition (FLK-1 receptor) [%]
1 | COc1ccc(OC)c(C=C2C(=O)Nc3ccc(I)cc32)c1 [10728/B02] | 61.2 | -11.1
2 | CNS(=O)(=O)c1ccc2c(c1)C(=Cc1cc(OC)cc(OC)c1)C(=O)N2 [10728/D04] | 23.1 | 6.8
3 | CNS(=O)(=O)c1ccc2c(c1)C(=Cc1cc(OC)ccc1OC)C(=O)N2 [10728/D02] | 21.4 | -0.3
4 | O=C1Nc2ccc(S(=O)(=O)N3CCOCC3)cc2C1=Cc1cc(O)ccc1O [10727/F10] | 93.4 | 15.9
5 | O=C1Nc2ccc(S(=O)(=O)N3CCOCC3)cc2C1=Cc1cc2c(cc1Cl)OCO2 [10727/F06] | 37.7 | 14.5
6 | COc1cc(N(C)C)ccc1C=C1C(=O)Nc2ccc(I)cc21 [10728/B05] | 60.4 | -12.3
7 | COc1cc(C=C2C(=O)Nc3ccc(Br)c(C)c32)cc2c1OCO2 [10728/C11] | 45.2 | -10.1
8 | O=C1Nc2ccc(S(=O)(=O)N3CCOCC3)cc2C1=Cc1ccccc1Sc1ccc(Cl)cc1 [10727/F05] | 6.0 | 21.8
9 | O=C1Nc2ccc(CCCl)cc2C1=Cc1cc2c(cc1Cl)OCO2 [10727/G06] | 31.1 | 2.9
10 | COc1cccc(C=C2C(=O)Nc3ccc(CCCl)cc32)c1OC [10727/G11] | -0.8 | 6.9
11 | O=C1Nc2ccc(S(=O)(=O)Nc3ccc(C(F)(F)F)cc3)cc2C1=Cc1ccccc1Sc1ccc(Cl)cc1 [10727/E05] | 12.1 | 17.1
12 | CCc1cc(CC)c(C=C2C(=O)Nc3ccc(S(=O)(=O)N4CCOCC4)cc32)[nH]1 [10727/F03] | 22.0 | 8.9
13 | CNS(=O)(=O)c1ccc2c(c1)C(=Cc1cc(Cl)cc(Br)c1O)C(=O)N2 [10727/D04] | 76.0 | 25.9
14 | O=C1Nc2c(Br)cc(Br)cc2C1=Cc1ccc(Cl)c([N+](=O)[O-])c1 [10718/A08] | 36.8 | 3.2
15 | CNS(=O)(=O)c1ccc2c(c1)C(=Cc1cccc(C#N)c1)C(=O)N2 [10727/D08] | 8.5 | 14.1
16 | O=C1Nc2ccc(CCCl)cc2C1=Cc1coc2ccccc2c1=O [10727/G07] | 29.6 | 7.2
17 | COc1cc(C=C2C(=O)Nc3ccc(I)cc32)cc2c1OCO2 [10728/B11] | 80.3 | -1.0
18 | Cc1c(Br)ccc2c1C(=Cc1c(F)cccc1C(F)(F)F)C(=O)N2 [10728/C09] | 31.6 | 14.5
19 | N#Cc1ccc(C=C2C(=O)Nc3ccc(S(=O)(=O)N4CCOCC4)cc32)cc1 [10727/F09] | 9.3 | -45.2
20 | COc1cc(C=C2C(=O)Nc3c(Br)cc(Br)cc32)cc(OC)c1 [10728/A04] | 28.5 | -3.5
21 | Cc1c(Br)ccc2c1C(=Cc1ccccc1OCC(=O)O)C(=O)N2 [10728/C10] | 28.7 | 6.1
